In PubChem BioAssay AID1963439 (Molecular Pharmacology Branch, DTP, NCI, 2024):

Tested on: NCI-H196 complex spheroids with HUVEC/MSC, growth % T/C
Test: Anticancer human tumor NCI-H196 cell line growth inhibition [Asc];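 also: spheroids exposed to compound for 7 days before measurement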;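 as to viability, T/C: 100% = DMSO vehicle control wells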
Conditions: for IC50: curve of first compound; for viability, T/C: stronger effect = lower value; active = viability on the fitted dose curve at most 10% of control; inactive = the rest
Summary of the method: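 Spheroid model: tumor line + HUVEC + hMSC. Single agents and combinations; top conc. at/near clinical Cmax (10 microM if undetermined), half-log dilutions. DMSO stocks at 800-fold test concentration.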

COc1c(OCCCN2CCOCC2)ccc2c3n(c(=NC(=O)c4cnc(N)nc4)nc12)CCN3 + CCN1C(C(=O)NC23CCC(C(=O)O)(CC2)CC3)C(c2cccc(Cl)c2F)C2(C(=O)Nc3cc(Cl)ccc32)C12CCCCC2
inactive: viability, T/C (second compound 0.03 µM, first compound 0.00316 µM) 101% | viability, T/C (second compound 0.03 µM, first compound 0.01 µM) 106% | viability, T/C (second compound 0.03 µM, first compound 0.0316 µM) 91% | viability, T/C (second compound 0.03 µM, first compound 0.1 µM) 77.1% | viability, T/C (second compound 0.03 µM, first compound 0.316 µM) 68.8% | viability, T/C (second compound 0.03 µM, first compound 1 µM) 52.1% | viability, T/C (second compound 0.0949 µM, first compound 0.00316 µM) 117% | viability, T/C (second compound 0.0949 µM, first compound 0.01 µM) 99.6% | viability, T/C (second compound 0.0949 µM, first compound 0.0316 µM) 98.5% | viability, T/C (second compound 0.0949 µM, first compound 0.1 µM) 82.8% | viability, T/C (second compound 0.0949 µM, first compound 0.316 µM) 72.7% | viability, T/C (second compound 0.0949 µM, first compound 1 µM) 52.2% | viability, T/C (second compound 0.3 µM, first compound 0.00316 µM) 110% | viability, T/C (second compound 0.3 µM, first compound 0.01 µM) 102% | viability, T/C (second compound 0.3 µM, first compound 0.0316 µM) 106% | viability, T/C (second compound 0.3 µM, first compound 0.1 µM) 83.1% | viability, T/C (second compound 0.3 µM, first compound 0.316 µM) 73.3% | viability, T/C (second compound 0.3 µM, first compound 1 µM) 59.7% | viability, T/C (second compound 0.949 µM, first compound 0.00316 µM) 103% | viability, T/C (second compound 0.949 µM, first compound 0.01 µM) 109% | viability, T/C (second compound 0.949 µM, first compound 0.0316 µM) 94.9% | viability, T/C (second compound 0.949 µM, first compound 0.1 µM) 85.7% | viability, T/C (second compound 0.949 µM, first compound 0.316 µM) 66.9% | viability, T/C (second compound 0.949 µM, first compound 1 µM) 57.3% | viability, T/C (second compound 3 µM, first compound 0.00316 µM) 113% | viability, T/C (second compound 3 µM, first compound 0.01 µM) 106% | viability, T/C (second compound 3 µM, first compound 0.0316 µM) 105% | viability, T/C (second compound 3 µM, first compound 0.1 µM) 81.2% | viability, T/C (second compound 3 µM, first compound 0.316 µM) 73.1% | viability, T/C (second compound 3 µM, first compound 1 µM) 54.2%
> 1000 nM: IC50 (second compound 0.03 µM) | IC50 (second compound 0.0949 µM) | IC50 (second compound 0.3 µM) | IC50 (second compound 0.949 µM) | IC50 (second compound 3 µM)

NC(=O)C(=Cn1cnc(-c2cc(C(F)(F)F)cc(C(F)(F)F)c2)n1)c1cncnc1 + Cc1c(S(C)(=O)=O)c(-c2cc(F)cc(N3CCN(c4ccc(NS(=O)(=O)c5ccc(NC(CCN6CCC(C(=O)OCCCP(=O)(O)O)CC6)CSc6ccccc6)c(S(=O)(=O)C(F)(F)F)c5)cc4)CC3)c2)c(-c2ccc(Cl)cc2)n1C(C)C
19.3 nM: IC50 (second compound 0.1 µM)
14.7 nM: IC50 (second compound 10 µM)
19.8 nM: IC50 (second compound 3.16 µM)
inactive: viability, T/C (second compound 0.1 µM, first compound 0.000949 µM) 101% | viability, T/C (second compound 0.1 µM, first compound 0.003 µM) 89.2% | viability, T/C (second compound 0.1 µM, first compound 0.00949 µM) 72.1% | viability, T/C (second compound 0.1 µM, first compound 0.03 µM) 38.7% | viability, T/C (second compound 0.316 µM, first compound 0.000949 µM) 95.5% | viability, T/C (second compound 0.316 µM, first compound 0.003 µM) 89% | viability, T/C (second compound 0.316 µM, first compound 0.00949 µM) 78.9% | viability, T/C (second compound 0.316 µM, first compound 0.03 µM) 43.4% | viability, T/C (second compound 1 µM, first compound 0.000949 µM) 91.2% | viability, T/C (second compound 1 µM, first compound 0.003 µM) 83.5% | viability, T/C (second compound 1 µM, first compound 0.00949 µM) 72.3% | viability, T/C (second compound 1 µM, first compound 0.03 µM) 42.8% | viability, T/C (second compound 3.16 µM, first compound 0.000949 µM) 78% | viability, T/C (second compound 3.16 µM, first compound 0.003 µM) 78.5% | viability, T/C (second compound 3.16 µM, first compound 0.00949 µM) 64.1% | viability, T/C (second compound 3.16 µM, first compound 0.03 µM) 42.5% | viability, T/C (second compound 10 µM, first compound 0.000949 µM) 76.4% | viability, T/C (second compound 10 µM, first compound 0.003 µM) 74.3% | viability, T/C (second compound 10 µM, first compound 0.00949 µM) 59.6% | viability, T/C (second compound 10 µM, first compound 0.03 µM) 33.5%
active: viability, T/C (second compound 0.1 µM, first compound 0.0949 µM) 4.69% | viability, T/C (second compound 0.1 µM, first compound 0.3 µM) 1.47% | viability, T/C (second compound 0.316 µM, first compound 0.0949 µM) 3.08% | viability, T/C (second compound 0.316 µM, first compound 0.3 µM) 1.16% | viability, T/C (second compound 1 µM, first compound 0.0949 µM) 2.35% | viability, T/C (second compound 1 µM, first compound 0.3 µM) 1.29% | viability, T/C (second compound 3.16 µM, first compound 0.0949 µM) 2.09% | viability, T/C (second compound 3.16 µM, first compound 0.3 µM) 1.75% | viability, T/C (second compound 10 µM, first compound 0.0949 µM) 2.89% | viability, T/C (second compound 10 µM, first compound 0.3 µM) 1.28%
23.3 nM: IC50 (second compound 0.316 µM)
21.3 nM: IC50 (second compound 1 µM)

C=C(F)C(=O)N1CCN(c2nc(OCC3CCCN3C)nc3c2CCN(c2cccc4cccc(Cl)c24)C3)CC1CC#N (stereo not given) + Cc1c(S(C)(=O)=O)c(-c2cc(F)cc(N3CCN(c4ccc(NS(=O)(=O)c5ccc(NC(CCN6CCC(C(=O)OCCCP(=O)(O)O)CC6)CSc6ccccc6)c(S(=O)(=O)C(F)(F)F)c5)cc4)CC3)c2)c(-c2ccc(Cl)cc2)n1C(C)C
> 10000 nM: IC50 (second compound 0.1 µM) | IC50 (second compound 0.316 µM)
5960 nM: IC50 (second compound 1 µM)
4480 nM: IC50 (second compound 10 µM)
inactive: viability, T/C (second compound 0.1 µM, first compound 0.0316 µM) 95.8% | viability, T/C (second compound 0.1 µM, first compound 0.1 µM) 94.5% | viability, T/C (second compound 0.1 µM, first compound 0.316 µM) 92% | viability, T/C (second compound 0.1 µM, first compound 1 µM) 99.9% | viability, T/C (second compound 0.1 µM, first compound 3.16 µM) 107% | viability, T/C (second compound 0.1 µM, first compound 10 µM) 74.8% | viability, T/C (second compound 0.316 µM, first compound 0.0316 µM) 87.6% | viability, T/C (second compound 0.316 µM, first compound 0.1 µM) 95% | viability, T/C (second compound 0.316 µM, first compound 0.316 µM) 99.3% | viability, T/C (second compound 0.316 µM, first compound 1 µM) 86.4% | viability, T/C (second compound 0.316 µM, first compound 3.16 µM) 87.4% | viability, T/C (second compound 0.316 µM, first compound 10 µM) 83.5% | viability, T/C (second compound 1 µM, first compound 0.0316 µM) 96.6% | viability, T/C (second compound 1 µM, first compound 0.1 µM) 81.3% | viability, T/C (second compound 1 µM, first compound 0.316 µM) 93.5% | viability, T/C (second compound 1 µM, first compound 1 µM) 74.9% | viability, T/C (second compound 1 µM, first compound 3.16 µM) 82% | viability, T/C (second compound 1 µM, first compound 10 µM) 25.5% | viability, T/C (second compound 3.16 µM, first compound 0.0316 µM) 82.7% | viability, T/C (second compound 3.16 µM, first compound 0.1 µM) 80.6% | viability, T/C (second compound 3.16 µM, first compound 0.316 µM) 78.5% | viability, T/C (second compound 3.16 µM, first compound 1 µM) 83.7% | viability, T/C (second compound 3.16 µM, first compound 3.16 µM) 85.5% | viability, T/C (second compound 10 µM, first compound 0.0316 µM) 75.5% | viability, T/C (second compound 10 µM, first compound 0.1 µM) 70.1% | viability, T/C (second compound 10 µM, first compound 0.316 µM) 70.4% | viability, T/C (second compound 10 µM, first compound 1 µM) 67.1% | viability, T/C (second compound 10 µM, first compound 3.16 µM) 68.5%
5080 nM: IC50 (second compound 3.16 µM)
active: viability, T/C (second compound 3.16 µM, first compound 10 µM) 4.09% | viability, T/C (second compound 10 µM, first compound 10 µM) 8.1%
